Consider two compounds from article PMC8372979 (Journal of medicinal chemistry, 2020).

By Cmax is commonly meant the highest concentration seen after dosing.

The subject of one data set is Caco-2 cells. Put plainly: Caco-2 permeability. The class given is in vitro ADME. Background: Caco-2 cells form a polarised layer with tight junctions and transporters.
In a further data set the test system is CYP3A4. The data set is described as follows: CYP3A4 induction. The class given is in vitro ADME. The conditions noted are these: in words.
Data set [1] can be described thus: Pharmacokinetics in female NMRI mice. Format: in vivo, mouse.
The subject of data set [2] is Bloodstream Trypanosoma brucei brucei Lister 427 (STIB 795). Put plainly: Growth inhibition assay for T. brucei brucei. Format: cell-based. The conditions noted are these: pEC50=−logEC50; 72 h, resazurin.

Turning to `Cn1nccc1Nc1nc(NCC(F)(F)F)c2nc[nH]c2n1` [Compound 4aa, N^2-(1-methyl-1H-pyrazol-5-yl)-N^6-(2,2,2-trifluoroethyl)-9H-purine-2,6-diamine], the “A-B Permeability Ranking” value with Caco-2 cells (Caco-2) is “Higher”. For the same compound, in the data set on Caco-2 cells (in words), the Caco-2 efflux entry is “rapidly effluxed” and the Caco-2 permeability entry is given as “Permeable”. In addition, the “CYP3A4 Liability (induction)” value with CYP3A4 was “does not have CYP3A4 induction liability”. Also, the Cmax in data set [1] (female, NMRI, mouse, in vivo, ip, 10 mg/kg, Mean Cmax ± SD, non-infected female NMRI mice, 10 mg/kg ip, without ABT-pretreatment, blood) was 3670 ± 922 ng/mL. In addition, the Mean tmax in data set [1] (infected female NMRI mice, 30 mg/kg ip + ABT, day 1, blood) fell in the range of 30 to 120 min.

For “N^6-(tert-butyl)-N^2-(thiophen-3-yl)-9H-purine-2,6-diamine [Compound 5r]”, in data set [2], the “T. brucei pEC50” value worked out at 7.1.
